Measured values from PMC6152655, “Determination and Pharmacokinetic Study of Three Diterpenes in Rat Plasma by UHPLC-ESI-MS/MS after Oral Administration of Rosmarinus officinalis L. Extract” (Molecules : A Journal of Synthetic Chemistry and Natural …, 2017).
Like-named read-outs stand apart in the source and are kept apart here.

Experiments:
[1] = Pharmacokinetic study in rats after oral administration of R. officinalis extract (UHPLC-ESI-MS/MS of plasma); format: in vivo, Sprague-Dawley (SD) rats; set-up: Cmax: unit: ng/mL; details: for Cmax / AUC(0-inf) / AUC(0-t) / Tmax / half-life: rat plasma, n = 6; for concentration at 0.5 h: plasma sample obtained at 0.5 h from a rat after oral administration of rosemary extract (Figure 2C)
Procedure: The validated method was successfully applied to pharmacokinetic studies of three diterpenes components after oral administration of rosemary at three different doses (0.25, 0.82, 2.45 g/kg). […] Therefore, we set low, medium and high doses in this study.
The main pharmacokinetic parameters of the analytes were calculated with DAS 2.0 (Shanghai, China) by non-compartmental analysis.
For the preparation of the extract, 100 g of dried leaves of R. officinalis were extracted under reflux with 1 L ethanol-water (80:20, v/v) for three times, 1 h for each time, and then filtrated. The combined filtrate was evaporated to dryness, and the residue was dissolved in water to get a concentration equivalent to 0.1 g/mL of the R. officinalis extract.
Male Sprague-Dawley (SD) rats (body weight 220 ± 50 g) were purchased and adapted under 65% RH, 23–27°C. […] Eighteen rats were randomly divided into low (0.24 g/kg), medium (0.82 g/kg), high (2.45 g/kg) dose groups. The SD rats were fasted for 12 h before experiment, had free access to water even during the experiment. The blood (0.25 mL) was collected from the orbital venous plexus at 0.08, 0.25, 0.50, 1, 1.5, 2, 3, 4, 6, 8, 12 and 24 h after oral administration of R. officinalis extract. The plasma was immediately acquired by centrifugation at 4 °C and stored frozen at −20 °C until analysis.
Before the experiment, the plasma samples stored in −20 °C were thawed naturally at room temperature. Using the optimized method, 50 μL of I.S. (2120 ng/mL), 100 μL of methanol and 100 μL of 1 mol/L HCl were added to 100 μL of plasma sample followed with vortex-mixed for 30 s. The mixed sample was extracted with 3 mL of ethyl acetate by being vortex-mixed for 1 min. The upper organic layer was removed and evaporated to dryness under a stream of nitrogen at 40 °C after centrifuging at 3800 rpm for 5 min. The residue was reconstituted with 100 μL of acetonitrile-water (40:60, v/v), and then vortex-mixed for 2 min and filtered by a 0.22 μm membrane. 10 μL of the subsequent filtrate were injected into the UHPLC-ESI-MS/MS system [20].
The maximum plasma concentration (Cmax) and the time of maximum plasma concentration (tmax) were observed directly from the measured data. The elimination rate constant (Ke) was calculated by linear regression of the terminal points in a semi-log plot of the plasma concentration against time. The elimination half-life (t1/2) was calculated using the formula t1/2 = 0.693/Ke. The area under plasma concentration-time curve (AUC0→t) to the last measurable plasma concentration (Ct) was estimated by using the linear trapezoidal rule. The area under the plasma concentration-time curve to time infinity (AUC0→∞) was calculated as AUC0→∞ = AUC0→t + Ct/Ke. Pharmacokinetic parameters of the analytes were calculated with DAS 2.0 (Shanghai, China) by non-compartmental analysis.

[2] = set-up: method as in PMID 19309757; details: rat, monomeric compound (purity ≥ 98%) instead of extract; cited from earlier work
[3] = Stability of the three diterpenes in rat plasma under different storage conditions; format: in vitro ADME; details: n = 6; for Stability (% RE) Post-Preparative: extracted samples, 12 h at 4 °C; for Stability (% RE) Long-Term / Stability (% RE) Short-Term / Stability (% RE) Freeze-Thaw: rat plasma; for Stability (% RE) Long-Term: 2 weeks at −20 °C; for Stability (% RE) Short-Term: room temperature 4 h; for Stability (% RE) Freeze-Thaw: three freeze (−20 °C)-thaw cycles
Procedure: The stability of the three diterpenes was assessed under various conditions (Table 4). […] Moreover, all the investigated compounds were stable for 2 weeks when kept frozen at −20 °C. The stability including cycles of freeze-thaw stability (three freeze at −20 °C and thaw cycles), room temperature stability (storage for 4 h at ambient temperature), long-term stability (storage for 2 weeks at −20 °C), post-preparation stability (storage for 12 h after sample preparation at 4 °C) were tested at LQC, MQC, HQC levels with six replicates at each level. The results were compared with those for freshly prepared QC samples and the percentage concentration deviation was calculated. The accuracy should be within ± 15% in freshly prepared samples. All the testing QC samples of stability were determined by using the calibration curve of freshly prepared standard samples.

[4] = male, Sprague-Dawley, rat, plasma, po, 0.24 g/kg, oral R. officinalis extract 0.24 g/kg (low dose), read-out: Cmax
[5] = male, Sprague-Dawley, rat, plasma, po, 0.82 g/kg, oral R. officinalis extract 0.82 g/kg (medium dose), read-out: Cmax
[6] = male, Sprague-Dawley, rat, plasma, po, 2.45 g/kg, oral R. officinalis extract 2.45 g/kg (high dose), read-out: Cmax
[7] = male, Sprague-Dawley, oral R. officinalis extract 0.24 g/kg (low dose)
[8] = male, Sprague-Dawley, oral R. officinalis extract 0.82 g/kg (medium dose)
[9] = male, Sprague-Dawley, oral R. officinalis extract 2.45 g/kg (high dose)
[10] = high QC (25,800/3488/4080 ng/mL)
[11] = low QC (21.50/2.910/3.400 ng/mL)
[12] = medium QC (1075/145.3/170.0 ng/mL)
[13] = low QC (21.50/2.910/3.400 ng/mL carnosic acid/carnosol/rosmanol)

SMILES | Cmax [1, 4] [ng/mL] | Cmax [1, 5] [ng/mL] | Cmax [1, 6] [ng/mL] | concentration at 0.5 h ([1]; male, Sprague-Dawley) [ng/mL] | AUC(0-inf) [1, 7] [ng·h/mL] | AUC(0-t) [1, 7] [ng·h/mL] | Tmax [1, 7] [h] | half-life [1, 7] [h] | AUC(0-inf) [1, 8] [ng·h/mL] | AUC(0-t) [1, 8] [ng·h/mL] | Tmax [1, 8] [h] | half-life [1, 8] [h] | AUC(0-inf) [1, 9] [ng·h/mL] | AUC(0-t) [1, 9] [ng·h/mL] | Tmax [1, 9] [h] | half-life [1, 9] [h] | Stability (% RE) Post-Preparative [3, 10] [% RE] | Stability (% RE) Post-Preparative [3, 11] [% RE] | Stability (% RE) Post-Preparative [3, 12] [% RE] | Stability (% RE) Long-Term [3, 10] [% RE] | further results
CC(C)c1cc2c(c(O)c1O)[C@@]1(C(=O)O)CCCC(C)(C)[C@@H]1CC2 [Carnosic acid] | 1210 ± 344 | 3960 ± 516 | 27500 | 27900 | 14900 | 9140 ± 1500 | 0.3 ± 0.11 | 8.02 ± 2.08 | 40000 | 28500 | 0.3 ± 0.11 | 12.8 ± 5.14 | 181000 | 146000 | 0.5 ± 0.31 | 12.8 ± 1.23 | 14.83 | 13.89 | 14.10 | 14.84 | Tmax [2]: 2.17 h; Stability (% RE) Long-Term [3, 11]: 13.78 % RE; Stability (% RE) Long-Term [3, 12]: 14.30 % RE; Stability (% RE) Short-Term [3, 10]: 14.84 % RE; Stability (% RE) Short-Term [3, 11]: 10.21 % RE; Stability (% RE) Short-Term [3, 12]: 14.80 % RE; Stability (% RE) Freeze-Thaw [3, 10]: 14.40 % RE; Stability (% RE) Freeze-Thaw [3, 13]: 14.04 % RE; Stability (% RE) Freeze-Thaw [3, 12]: 14.82 % RE
CC(C)c1cc2c(c(O)c1O)[C@@]13CCCC(C)(C)[C@@H]1C[C@@H]2OC3=O [Carnosol] | 217 ± 53.1 | 413 ± 42.6 | 1480 ± 266 | 1830 | 1820 ± 327 | 1470 ± 190 | 0.4 ± 0.13 | 12.3 ± 2.36 | 7360 ± 2740 | 3190 ± 316 | 0.27 ± 0.15 | 13.9 ± 6.95 | 17400 | 14000 | 0.7 ± 0.45 | 12.8 ± 3.15 | 2.09 | 2.32 | 0.66 | −0.48 | Cmax ([1]; oral R. officinalis extract 0.24 g/kg (low dose)): 216.56 ± 53.09 ng/mL; Cmax ([1]; oral R. officinalis extract 0.82 g/kg (medium dose)): 413.34 ± 42.59 ng/mL; Stability (% RE) Long-Term [3, 11]: 3.10 % RE; Stability (% RE) Long-Term [3, 12]: 14.49 % RE; Stability (% RE) Short-Term [3, 10]: −0.79 % RE; Stability (% RE) Short-Term [3, 11]: 8.07 % RE; Stability (% RE) Short-Term [3, 12]: −8.67 % RE; Stability (% RE) Freeze-Thaw [3, 10]: 0.30 % RE; Stability (% RE) Freeze-Thaw [3, 13]: 5.39 % RE; Stability (% RE) Freeze-Thaw [3, 12]: 8.40 % RE
CC(C)c1cc2c(c(O)c1O)[C@@]13CCCC(C)(C)[C@@H]1[C@H](OC3=O)[C@H]2O [Rosmanol] | 77.2 ± 10.5 | 188 ± 75.9 | 633 ± 118 | 568 | 552 ± 130 | 460 ± 54.9 | 0.25 | 8.88 ± 3.52 | 826 ± 138 | 678 ± 56.9 | 0.2 ± 0.18 | 9.75 ± 2.44 | 7980 ± 1650 | 5370 ± 927 | 0.55 ± 0.27 | 15.4 ± 3.54 | 4.60 | −0.30 | −7.65 | 9.17 | Cmax ([1]; oral R. officinalis extract 2.45 g/kg (high dose)): 633.41 ± 118.52 ng/mL; Stability (% RE) Long-Term [3, 11]: 7.17 % RE; Stability (% RE) Long-Term [3, 12]: −8.56 % RE; Stability (% RE) Short-Term [3, 10]: 0.65 % RE; Stability (% RE) Short-Term [3, 11]: 5.01 % RE; Stability (% RE) Short-Term [3, 12]: −8.16 % RE; Stability (% RE) Freeze-Thaw [3, 10]: −0.07 % RE; Stability (% RE) Freeze-Thaw [3, 13]: 4.65 % RE; Stability (% RE) Freeze-Thaw [3, 12]: −7.12 % RE
